# Measurements as given in patent US8728797B2, “Yeast membrane protein expression system and its application in drug screening” (priority 2001, dated 2014).
# Tests used:
# S. cerevisiae AD1-8u^− = assay: MIC microdilution test, parental strain; format: cell-based; details: Saccharomyces cerevisiae; AD1-8u^− parental strain; 30° C., 48 h, pH 7.0
# Description: (§1) The MICs of antifungal agents for S. cerevisiae cells were determined by a microdilution test based on the macrodilution reference method of the National Committee for Clinical Laboratory Standards. Cells (10 μl cell suspension, 2×10^5 cells/ml) were inoculated into 90 μl CSM-URA, buffered with 10 mM 2-(N-morpholino)ethanesulfonic acid (MES) and 18 mM N-2-hydroxyethylpiperazine-N′-2-ethanesulfonic acid (HEPES), pH 7.0 and containing 0.67% (w/v) yeast nitrogen base (YNB) in microtitre plate wells. For the uracil-requiring strain AD1-8u^− the medium was supplemented with 0.02% (w/v) uridine. The wells contained, in […], doubling dilutions of antifungal agents (final concentrations: fluconazole, 40-0.078 μg/ml; itraconazole and ketoconazole, 8-0.016 μg/ml). The microtitre plates were incubated at 30° C. for 48 h with shaking and then the growth of cells in individual wells (OD590) was measured with a microplate reader (EL 340, Bio-Tek, Winooski, Vt.). The MIC80 was the lowest concentration of drug that inhibited growth yield by at least 80% compared to a no-drug control.
# [1] = system: S. cerevisiae AD1002 expressing C. albicans Cdr1p; assay: MIC microdilution test, strain expressing Cdr1p; format: cell-based; details: for MIC80: AD1002 expressing Cdr1p, 30° C., 48 h, pH 7.0; for fold increase in MIC: AD1002 relative to parental AD1-8u^−
# Description: as §1
# S. cerevisiae AD1-8/CDR2 = assay: MIC microdilution test, strain expressing Cdr2p; format: cell-based; details: Saccharomyces cerevisiae, AD18/CDR2, 30° C.
# Description: as §1
# Pdr5p ATPase = molecular target: T1, Pdr5p ATPase (Saccharomyces cerevisiae, UniProt P33302); assay: Oligomycin sensitive ATPase activity of AD124567 plasma membranes; format: biochemical, S. cerevisiae; details: in vitro
# T1 construct: plasma membranes from the AD124567 yeast strain overexpressing Pdr5p; endogenous in cells; host or cells: S. cerevisiae AD124567 (pdr1-3, PDR5 intact), plasma membrane fraction
# T1 sequence (P33302 whole entry): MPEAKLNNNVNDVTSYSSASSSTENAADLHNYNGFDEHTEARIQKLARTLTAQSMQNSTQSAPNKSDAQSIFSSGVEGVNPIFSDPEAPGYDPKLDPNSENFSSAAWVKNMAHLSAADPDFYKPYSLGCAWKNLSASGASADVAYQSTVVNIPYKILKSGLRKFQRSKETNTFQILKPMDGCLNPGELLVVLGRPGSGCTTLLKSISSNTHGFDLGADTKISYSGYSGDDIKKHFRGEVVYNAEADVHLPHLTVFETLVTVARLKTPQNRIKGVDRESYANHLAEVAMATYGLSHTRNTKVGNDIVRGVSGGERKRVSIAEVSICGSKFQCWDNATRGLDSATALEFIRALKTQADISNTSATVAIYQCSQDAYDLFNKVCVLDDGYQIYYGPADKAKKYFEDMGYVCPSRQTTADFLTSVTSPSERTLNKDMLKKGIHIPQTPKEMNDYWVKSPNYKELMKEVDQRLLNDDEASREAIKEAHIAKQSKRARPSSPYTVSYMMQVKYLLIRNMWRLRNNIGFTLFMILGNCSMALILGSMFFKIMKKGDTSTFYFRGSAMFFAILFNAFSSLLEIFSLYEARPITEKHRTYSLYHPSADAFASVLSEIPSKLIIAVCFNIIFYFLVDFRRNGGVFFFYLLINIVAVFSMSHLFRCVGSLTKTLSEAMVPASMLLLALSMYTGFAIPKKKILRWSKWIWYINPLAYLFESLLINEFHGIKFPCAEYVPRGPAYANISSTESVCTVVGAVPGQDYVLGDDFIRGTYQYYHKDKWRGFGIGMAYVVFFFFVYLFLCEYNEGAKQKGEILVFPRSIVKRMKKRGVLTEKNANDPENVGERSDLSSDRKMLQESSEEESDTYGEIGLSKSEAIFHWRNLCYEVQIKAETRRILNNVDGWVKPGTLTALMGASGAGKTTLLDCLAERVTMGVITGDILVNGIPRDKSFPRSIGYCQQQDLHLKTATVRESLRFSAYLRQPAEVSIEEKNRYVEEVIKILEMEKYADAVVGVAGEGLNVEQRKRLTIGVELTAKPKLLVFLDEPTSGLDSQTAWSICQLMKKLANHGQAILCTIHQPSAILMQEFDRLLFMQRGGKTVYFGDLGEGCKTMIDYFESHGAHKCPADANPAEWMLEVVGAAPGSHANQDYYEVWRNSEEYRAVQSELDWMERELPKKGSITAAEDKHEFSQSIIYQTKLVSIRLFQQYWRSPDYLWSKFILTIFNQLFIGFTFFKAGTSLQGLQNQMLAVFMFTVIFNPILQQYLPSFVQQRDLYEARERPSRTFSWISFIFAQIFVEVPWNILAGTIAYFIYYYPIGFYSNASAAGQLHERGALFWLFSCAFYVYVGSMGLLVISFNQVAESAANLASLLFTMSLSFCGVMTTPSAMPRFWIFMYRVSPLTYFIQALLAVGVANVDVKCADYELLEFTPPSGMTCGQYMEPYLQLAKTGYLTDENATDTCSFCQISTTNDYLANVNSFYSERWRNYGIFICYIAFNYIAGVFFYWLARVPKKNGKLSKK
# Description: (A) Inhibition profiles of oligomycin-sensitive Pdr5p ATPase activity by the purified peptides D-NH2-asparagine-tryptophan-tryptophan-lysine-valine-arginine-arginine-arginine-CONH2 (KN0) and its singly substituted Mtr-derivative KN20. (B) Inhibition profile with KN20 on the oligomycin-sensitive Cdr1p ATPase activity of plasma membranes from AD1002 minus the oligomycin-sensitive ATPase activity of plasma membranes from the isogenic AD1-8u^− strain.
# Yeast were grown in YEPD, pH 5.5 at 30° C. until they reached late-exponential phase of growth (OD600 nm=7), washed twice in ice-cold distilled water, and incubated on ice for 30 min to minimize glucose-stimulated Pma1p activity. Cells were resuspended in homogenising medium (50 mM Tris pH 7.5, 2 mM EDTA and 1 mM phenylmethylsulfonyl fluoride) and disrupted using a Braun Homogeniser. Cell debris and unbroken cells were removed by centrifuging at 2,000×g at 4° C. for 10 min. A crude membrane fraction was isolated from the cell-free supernatant by centrifuging at 30,000×g at 4° C. for 45 min. Plasma membranes were prepared by centrifugation of the supernatant obtained after selective precipitation of mitochondria at pH 5.2 as described previously (Goffeau, A. and Dufour, J. P., 1988). […] Protein was determined using a micro-Bradford (Bio-Rad Laboratories, Hercules, Calif. [Bradford, M. M., 1976]) assay with gamma-globulin as standard. Nucleotide triphosphatase activity was measured by incubating the plasma membrane fractions (10 μg) at 30° C. in a final volume of 120 μl containing 6 mM NTP, 7 mM MgSO4 in 59 mM MES-Tris buffer pH 6.0-8.0. […] Other ATPase inhibitors (20 μM oligomycin, 20 μM aurovertin B or 100 μM vanadate were added to the reaction where indicated. After 30 min the reaction was stopped by adding 130 μl of a solution containing 1% (w/v) SDS, 0.6 M H2SO4, 1.2% (w/v) ammonium molybdate and 1.6% (w/v) ascorbic acid. Inorganic phosphate released from NTPs was measured at 750 nm after 10 min incubation at room temperature.
# [2] = system: AD124567 (Pdr5p-overexpressing); assay: Disk drug susceptibility assay of chemosensitisation to fluconazole; format: cell-based, S. cerevisiae; details: 120 μg/ml fluconazole, 47 nanomole peptide on disk
# Description: (A) Checkerboard drug susceptibility assay of AD124567 in the presence of the indicated concentrations of fluconazole and KN20. (B) Disk drug susceptibility assay of AD124567. This assay was conducted, as described in Materials and methods for example 4, in the absence or presence of fluconazole (120 μg/ml), and in the presence of (1) KN0 (47 nanomole), (2) KN20 (47 nanomole) or (0) control amounts of DMSO applied to disks
# (§2) Drug susceptibility was measured using disk assays on CSM-URA plates (containing 1.5% w/v agar). Plates were seeded with yeast cells suspended in top agar (5 ml, 10^5 cells/ml). For the uracil-dependent parental strain, agar was supplemented with 0.02% uridine. Five microliters of drug solution or solvent control were spotted onto sterile Whatman paper disks on the top agar. […]
# AD1002 = assay: as above; format: cell-based, S. cerevisiae; details: 5 μg/ml fluconazole, 12 nanomole peptide on disk
# Description: (A) Checkerboard drug susceptibility assay of AD1002. This assay was conducted as described in Materials and methods in the presence of the indicated concentrations of fluconazole and KN20. (B) Disk drug susceptibility assay of AD1002. This assay was conducted, as described in Materials and methods for Example 4, in the absence or presence of 5 μg/ml fluconazole, with (1) KN0 (12 nanomole), (2) KN20 (12 nanomole) or (0) control amounts of DMSO applied to the disks. (C) Checkerboard drug susceptibility assay of ATCC 10261. This assay was conducted, as described in Material and methods for Example 4, in the presence of the indicated concentrations of fluconazole and KN20. D indicates cell death as measured by a failure to recover any colony forming units when samples from microtitre plate wells were cultured on solid YPD medium.
# as §2
Compound,MIC80 (S. cerevisiae AD1-8u^−),MIC80 [1],fold increase in MIC [1],MIC80 (S. cerevisiae AD1-8/CDR2),effect on oligomycin sensitive Pdr5p ATPase activity (Pdr5p ATPase),chemosensitisation to fluconazole in disk assay [2],chemosensitisation to fluconazole in disk assay (AD1002)
CC(=O)N1CCN(c2ccc(OCC3COC(Cn4ccnc4)(c4ccc(Cl)cc4Cl)O3)cc2)CC1 (centres unmarked) [ketoconazole],< 0.016 µg/mL,0.5 µg/mL,> 31 fold,2 µg/mL,–,–,–
CCC(C)n1ncn(-c2ccc(N3CCN(c4ccc(OCC5COC(Cn6cncn6)(c6ccc(Cl)cc6Cl)O5)cc4)CC3)cc2)c1=O (centres unmarked) [itraconazole],< 0.016 µg/mL,4 µg/mL,> 250 fold,1 µg/mL,–,–,–
D-NH2-asparagine-tryptophan-tryptophan-lysine-valine-arginine-arginine-arginine-CONH2 [KN0],–,–,–,–,ineffective,ineffective at chemosensitisation,ineffective at chemosensitisation
